Experimental data reported in the CheMixHub viscosity set.
± gives the uncertainty stated by the source.

Experiment: xn = mol fraction of the nth substance listed

CC(C)CCC[C@@H](C)[C@H]1CC[C@H]2[C@@H]3CC=C4C[C@@H](O)CC[C@]4(C)[C@H]3CC[C@]12C + c1ccccc1
viscosity [mPa·s], 101.33 kPa
Conditions	x1 = 0.00346	x1 = 0.00447	x1 = 0.00753	x1 = 0.008796	x1 = 0.01276	x1 = 0.01496	x1 = 0.01612	x1 = 0.01894	x1 = 0.02302
298 K	0.617 ± 0.008	0.624 ± 0.008	0.643 ± 0.008	0.651 ± 0.008	0.681 ± 0.009	0.698 ± 0.009	0.708 ± 0.009	0.733 ± 0.009	0.773 ± 0.009
303 K	0.574 ± 0.007	0.579 ± 0.007	0.598 ± 0.008	0.607 ± 0.008	0.633 ± 0.008	0.647 ± 0.008	0.657 ± 0.008	0.677 ± 0.008	0.714 ± 0.009
313 K	0.506 ± 0.007	0.509 ± 0.007	0.525 ± 0.007	0.529 ± 0.007	0.552 ± 0.007	0.565 ± 0.007	0.571 ± 0.007	0.588 ± 0.008	0.614 ± 0.008
323 K	0.448 ± 0.006	0.453 ± 0.006	0.466 ± 0.006	0.472 ± 0.006	0.489 ± 0.007	0.499 ± 0.007	0.504 ± 0.007	0.517 ± 0.007	0.541 ± 0.007

CCCCCCCCCCCC + c1ccccc1
Conditions	viscosity [mPa·s]
295.15 K, 100 kPa, x2 = 0.3903	1.047 ± 0.21
298 K, 101 kPa, x2 = 0.5	0.9053 ± 0.024
298.15 K, 101.33 kPa, x1 = 0.04733	0.6259 ± 0.0056
298.15 K, 101.33 kPa, x1 = 0.1084	0.6476 ± 0.0057
298.15 K, 101.33 kPa, x1 = 0.2036	0.6913 ± 0.0061
298.15 K, 101.33 kPa, x1 = 0.2978	0.7491 ± 0.0065
298.15 K, 101.33 kPa, x1 = 0.4139	0.8308 ± 0.0071
298.15 K, 101.33 kPa, x1 = 0.5192	0.9153 ± 0.0077
298.15 K, 101.33 kPa, x1 = 0.6155	0.9976 ± 0.0083
298.15 K, 101.33 kPa, x1 = 0.7291	1.102 ± 0.0091
298.15 K, 101.33 kPa, x1 = 0.8011	1.168 ± 0.0096
298.15 K, 101.33 kPa, x1 = 0.9231	1.291 ± 0.01
298.38 K, 101.3 kPa, x1 = 0.5002	0.8885 ± 0.011
298.52 K, 101.3 kPa, x1 = 0.2502	0.7103 ± 0.0087
298.76 K, 101.3 kPa, x1 = 0.7496	1.097 ± 0.013
298.77 K, 101.3 kPa, x1 = 0.7496	1.096 ± 0.013
298.79 K, 101.3 kPa, x1 = 0.7496	1.095 ± 0.013
299.49 K, 101.3 kPa, x1 = 0.5002	0.8746 ± 0.011
308.08 K, 101.3 kPa, x1 = 0.5002	0.775 ± 0.0094
308.51 K, 101.3 kPa, x1 = 0.2502	0.6242 ± 0.0076
308.9 K, 101.3 kPa, x1 = 0.7496	0.9482 ± 0.011
318 K, 101 kPa, x2 = 0.5	0.6904 ± 0.018
322.92 K, 101.3 kPa, x1 = 0.5002	0.6451 ± 0.0078
322.94 K, 101.3 kPa, x1 = 0.2502	0.5262 ± 0.0064

CCCCCCCCCCO + c1ccccc1
viscosity [mPa·s], 100 kPa
Conditions	x2 = 0.0822	x2 = 0.1563	x2 = 0.2472	x2 = 0.3611	x2 = 0.4531	x2 = 0.5602	x2 = 0.6533	x2 = 0.7528	x2 = 0.8574	x2 = 0.9496
293.15 K	12.2 ± 0.61	10.48 ± 0.53	8.738 ± 0.44	6.833 ± 0.34	5.51 ± 0.28	4.154 ± 0.21	3.087 ± 0.16	2.082 ± 0.11	1.318 ± 0.068	0.839 ± 0.044
303.15 K	8.134 ± 0.41	6.872 ± 0.35	5.555 ± 0.28	4.197 ± 0.21	3.332 ± 0.17	2.5 ± 0.1	1.888 ± 0.096	1.361 ± 0.069	0.925 ± 0.047	0.656 ± 0.034
313.15 K	5.704 ± 0.29	4.746 ± 0.24	3.723 ± 0.19	2.709 ± 0.14	2.089 ± 0.11	1.514 ± 0.077	1.132 ± 0.058	0.877 ± 0.045	0.673 ± 0.034	0.546 ± 0.028
323.15 K	4.088 ± 0.21	3.345 ± 0.17	2.548 ± 0.13	1.757 ± 0.089	1.34 ± 0.07	1.012 ± 0.051	0.796 ± 0.041	0.644 ± 0.033	0.536 ± 0.027	0.461 ± 0.024

Cc1ccccc1C + c1ccccc1
viscosity [mPa·s]
Conditions	293.15 K	303.15 K	308.15 K	313.15 K	318.15 K	323.15 K
101 kPa, x2 = 0.1	–	0.657 ± 0.004	0.622 ± 0.004	0.594 ± 0.004	0.572 ± 0.004	–
101 kPa, x2 = 0.2	–	0.665 ± 0.004	0.631 ± 0.004	0.597 ± 0.004	0.573 ± 0.004	–
101 kPa, x2 = 0.4	–	0.69 ± 0.005	0.668 ± 0.005	0.599 ± 0.004	0.574 ± 0.004	–
101 kPa, x2 = 0.6	–	0.652 ± 0.004	0.623 ± 0.004	0.592 ± 0.004	0.55 ± 0.004	–
101 kPa, x2 = 0.802	–	0.645 ± 0.004	0.61 ± 0.004	0.577 ± 0.004	0.552 ± 0.004	–
101 kPa, x2 = 0.902	–	0.67 ± 0.004	0.641 ± 0.004	0.623 ± 0.004	0.587 ± 0.004	–
101.33 kPa, x2 = 0.1	–	0.657 ± 0.07	0.622 ± 0.066	0.594 ± 0.064	0.572 ± 0.062	–
101.33 kPa, x2 = 0.2	–	0.665 ± 0.07	0.631 ± 0.067	0.597 ± 0.064	0.573 ± 0.062	–
101.33 kPa, x2 = 0.2114	0.749 ± 0.0065	0.657 ± 0.0058	–	0.583 ± 0.0053	–	0.519 ± 0.0048
101.33 kPa, x2 = 0.4	–	0.69 ± 0.072	0.668 ± 0.07	0.599 ± 0.064	0.574 ± 0.062	–
101.33 kPa, x2 = 0.4129	0.71 ± 0.0062	0.625 ± 0.0056	–	0.554 ± 0.005	–	0.493 ± 0.0046
101.33 kPa, x2 = 0.5938	0.685 ± 0.0061	0.601 ± 0.0054	–	0.531 ± 0.0049	–	0.474 ± 0.0044
101.33 kPa, x2 = 0.6	–	0.652 ± 0.069	0.623 ± 0.067	0.592 ± 0.064	0.55 ± 0.06	–
101.33 kPa, x2 = 0.7195	0.669 ± 0.0059	0.585 ± 0.0053	–	0.517 ± 0.0048	–	0.461 ± 0.0043
101.33 kPa, x2 = 0.802	–	0.645 ± 0.068	0.61 ± 0.065	0.577 ± 0.063	0.552 ± 0.06	–
101.33 kPa, x2 = 0.8514	0.658 ± 0.0059	0.575 ± 0.0052	–	0.506 ± 0.0047	–	0.45 ± 0.0043
101.33 kPa, x2 = 0.902	–	0.67 ± 0.071	0.641 ± 0.068	0.623 ± 0.067	0.587 ± 0.063	–

c1cc[nH]c1 + c1ccccc1
viscosity [mPa·s], 101 kPa
Conditions	x1 = 0.05439	x1 = 0.06772	x1 = 0.1099
303.15 K	0.576 ± 0.018	0.579 ± 0.018	0.59 ± 0.018
323.15 K	0.445 ± 0.016	0.452 ± 0.016	0.459 ± 0.016

NC(N)=O + c1ccncc1
Conditions	viscosity [mPa·s]
298.15 K, 101 kPa, x1 = 0.012	0.939 ± 0.19
